Test results from paper PMC7327383, “The affinity and selectivity of α‐adrenoceptor antagonists, antidepressants, and antipsychotics for the human α1A, α1B, and α1D‐adrenoceptors” (Pharmacology Research & Perspectives, 2020).
Like-named read-outs stand apart in the source and are kept apart here.

How the values were obtained:
[1] = target: T1, full-length human α1D-adrenoceptor (Homo sapiens, UniProt P25100); test: [3H]prazosin whole-cell competition binding, CHO-α1D cells; details: for Log KD α1D site 2: low-affinity component of two-component curve
T1 sequence (P25100 1-572): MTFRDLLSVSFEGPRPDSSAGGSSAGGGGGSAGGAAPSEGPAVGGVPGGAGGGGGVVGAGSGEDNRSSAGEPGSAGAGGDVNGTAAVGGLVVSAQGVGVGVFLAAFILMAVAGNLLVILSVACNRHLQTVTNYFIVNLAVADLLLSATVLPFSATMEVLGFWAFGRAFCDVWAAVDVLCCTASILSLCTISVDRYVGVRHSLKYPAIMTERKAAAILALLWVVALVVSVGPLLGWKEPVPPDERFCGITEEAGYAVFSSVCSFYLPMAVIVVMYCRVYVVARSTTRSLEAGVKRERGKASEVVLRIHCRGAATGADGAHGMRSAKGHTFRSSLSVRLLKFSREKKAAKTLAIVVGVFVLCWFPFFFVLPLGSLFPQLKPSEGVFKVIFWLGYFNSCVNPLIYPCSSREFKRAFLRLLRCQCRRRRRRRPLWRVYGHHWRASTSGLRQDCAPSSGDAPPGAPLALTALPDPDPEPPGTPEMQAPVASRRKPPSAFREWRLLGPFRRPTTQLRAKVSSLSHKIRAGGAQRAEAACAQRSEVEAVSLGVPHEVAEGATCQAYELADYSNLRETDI

[2] = target: T2, human α1A-adrenoceptor (Homo sapiens, UniProt P35348); test: [3H]prazosin whole-cell competition binding, CHO-α1A cells
T2 construct: CHO cells stably expressing either the full‐length human α1A, α1B, or α1D‐adrenoceptor
T2 sequence (P35348 1-466): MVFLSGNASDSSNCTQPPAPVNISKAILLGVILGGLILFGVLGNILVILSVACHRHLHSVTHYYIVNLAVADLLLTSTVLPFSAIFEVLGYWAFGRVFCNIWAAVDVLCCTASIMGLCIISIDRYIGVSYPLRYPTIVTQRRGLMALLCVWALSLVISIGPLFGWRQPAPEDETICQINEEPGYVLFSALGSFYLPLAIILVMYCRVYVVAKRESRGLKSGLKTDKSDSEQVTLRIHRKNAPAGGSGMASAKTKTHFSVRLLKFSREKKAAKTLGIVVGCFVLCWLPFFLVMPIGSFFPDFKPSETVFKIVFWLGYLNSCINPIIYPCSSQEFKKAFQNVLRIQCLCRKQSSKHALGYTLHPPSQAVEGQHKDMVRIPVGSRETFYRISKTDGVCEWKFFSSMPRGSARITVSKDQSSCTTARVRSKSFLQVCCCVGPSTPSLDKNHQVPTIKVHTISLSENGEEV

[3] = target: T3, human α1B-adrenoceptor (Homo sapiens, UniProt P35368); test: [3H]prazosin whole-cell competition binding, CHO-α1B cells; details: for Kd: read-out: Log KD α1B (converted); for Log KD α1B (apparent): app: top concentration inhibited most but not all specific binding, curve extrapolated
T3 construct: CHO cells stably expressing either the full‐length human α1A, α1B, or α1D‐adrenoceptor
T3 sequence (P35368 1-520): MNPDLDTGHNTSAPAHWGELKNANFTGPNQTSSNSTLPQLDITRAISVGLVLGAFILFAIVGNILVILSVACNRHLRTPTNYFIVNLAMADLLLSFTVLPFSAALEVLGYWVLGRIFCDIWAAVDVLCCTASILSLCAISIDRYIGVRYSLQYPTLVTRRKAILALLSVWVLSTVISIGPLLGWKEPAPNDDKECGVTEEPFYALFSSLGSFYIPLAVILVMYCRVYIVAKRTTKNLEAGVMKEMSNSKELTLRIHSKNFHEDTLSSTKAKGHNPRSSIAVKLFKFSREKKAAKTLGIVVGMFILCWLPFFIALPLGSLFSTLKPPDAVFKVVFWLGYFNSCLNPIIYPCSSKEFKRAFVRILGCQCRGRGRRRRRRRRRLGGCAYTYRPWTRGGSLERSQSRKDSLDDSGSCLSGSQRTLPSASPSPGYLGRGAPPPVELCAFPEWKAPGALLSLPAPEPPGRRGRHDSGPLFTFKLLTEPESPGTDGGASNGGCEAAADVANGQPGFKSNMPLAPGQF

[4] = ratio of KD values, higher α1D affinity (site 1 KD)
[5] = ratio of KD values, higher α1A affinity, 1.0 under vs = none
[6] = ratio of KD values, printed under α1A = higher α1A affinity, 1.0 under vs = none
[7] = single-component inhibition curve, given as log KD (negative), mean ± SE mean, read-out: Log KD α1A (converted)
[8] = ratio, 1 = no selectivity for a subtype over another
[9] = single-component inhibition curve, given as log KD (negative), mean ± SE mean
[10] = Log KD α1D, single-component inhibition curve, given as log KD (negative), mean ± SE mean
[11] = percentage of inhibition through first component, control
[12] = two-component inhibition curve, proportion of site 1
[13] = log KD from 3H-prazosin whole cell binding, CHO cells, mean ± s.e.mean
[14] = ratio of KD values, higher α1B affinity, 1.0 under vs = none

| Selectivity ratio α1B vs α1D [1, 4] [fold] | Selectivity ratio α1A vs α1D [2, 5] [fold] | Selectivity ratio α1A vs α1B [2, 6] [fold] | Kd [2, 7] [nM] | selectivity α1B vs α1D [3, 8] | Log KD α1A [2, 9] | Kd [1, 10] [nM] | SMILES | Kd [3, 9] [nM] | other results |
| --- | --- | --- | --- | --- | --- | --- | --- | --- | --- |
| 2.4 | 7.2 | 17 |  | 2.4 | −5.92 ± 0.09 |  | CC1c2ccccc2CN1CC1=NCCN1 (stereo not drawn) [BRL44408] |  | Log KD α1D [1, 9]: −5.06 ± 0.05; Log KD α1B [3, 9]: −4.68 ± 0.07 |
| 12 |  | 5.8 |  | 12 | −5.75 ± 0.05 |  | CCS(=O)(=O)N1CCC[C@@H]2CN3CCc4cc(OC)ccc4[C@@H]3C[C@@H]21 [RS79948] |  | Selectivity ratio α1A vs α1D [1, 4]: 2.1 fold; Log KD α1D [1, 9]: −6.07 ± 0.11; selectivity α1A vs 1D [2, 8]: 2.1; Log KD α1B [3, 9]: −4.99 ± 0.05 |
| 5.9 | 1.6 | 9.5 |  | 5.9 | −5.90 ± 0.06 |  | COc1ccc(NC(=O)N2CCc3c2ccc2ccccc32)cc1N1CCN(C)CC1 [S32212] |  | Log KD α1D (apparent) ([1]; app: top concentration inhibited most but not all specific binding, curve extrapolated): −5.69 ± 0.13^app; Log KD α1B (apparent) [3]: −4.92 ± 0.02^app |

The remaining lines, values behind:

| SMILES | Selectivity ratio α1B vs α1D [1, 4] [fold] | Selectivity ratio α1A vs α1D [2, 5] [fold] | Selectivity ratio α1A vs α1B [2, 6] [fold] | Kd [2, 7] [nM] | selectivity α1B vs α1D [3, 8] | Log KD α1A [2, 9] | Kd [1, 10] [nM] | Kd [3, 9] [nM] | other results |
| --- | --- | --- | --- | --- | --- | --- | --- | --- | --- |
| CC(C)(C)NCC(O)COc1cccc2[nH]c(C#N)cc12 (stereo not drawn) [Cyanopindolol] | 3.1 | 1.5 | 4.8 | 2570 | 3.1 |  |  | 12300 | Kd [1]: 3980 nM |
| CN1CCN(c2ccc(Nc3c4ccccc4nc4ccccc34)cc2)CC1 [JP1302] |  |  |  |  |  | −6.21 ± 0.04 |  |  | Log KD α1D [1, 9]: −5.58 ± 0.09; Log KD α1B [3, 9]: −5.46 ± 0.02 |
| CN[C@H]1CC[C@@H](c2ccc(Cl)c(Cl)c2)c2ccccc21 [Sertraline] |  |  |  | 1910 |  |  | 2450 | 3550 | Selectivity ratio α1B vs α1D [1]: 1.4 fold; Selectivity ratio α1A vs α1B [2]: 1.9 fold; Selectivity ratio α1A vs α1D [2]: 1.3 fold; selectivity α1B vs α1D [3]: 1.4 |
| CN1[C@H]2C[C@H](OC(=O)[C@H](CO)c3ccccc3)C[C@@H]1[C@@H](O)C2 [Anisodamine] |  |  |  |  |  | −5.21 ± 0.03 |  |  | Log KD α1D [1, 9]: −4.21 ± 0.05; Log KD α1B (apparent) [3]: −3.45 ± 0.04^app |
| COc1cc2nc(N3CCN(C(=O)c4ccco4)[C@H]4CCCC[C@H]43)nc(N)c2cc1OC (racemic) [Cyclazosin] | 15 |  | 1.6 | 1.29 | 15 |  |  | 2.09 | Kd ([1]; Log KD α1D site 1, high-affinity component of two-component curve, control, used for selectivity): 0.135 nM; Kd ([1]; affinity, subtype not given, by Table 1 reached at α1D site 1): < 0.25 nM; Log KD α1D site 2 ([1]; control): −7.44 ± 0.10; % site 1 α1D [1, 11]: 56.8 ± 3.4% site 1; Selectivity ratio α1A vs α1D [1, 4]: 9.5 fold; % site 1 α1D [1, 12]: -9.87 ± 0.06 -7.44 ± 0.10 56.8 ± 3.4% site 1; selectivity α1A vs 1D [2, 8]: 9.5 |
| COc1ccc2cccc(CCNC(C)=O)c2c1 [Agomelatine] |  |  | >3.7 |  |  |  |  |  | IC50 [1]: > 31600 nM; Kd ([2]; app: top concentration inhibited most but not all specific binding, curve extrapolated, read-out: Log KD α1A (apparent) (converted)): 26900 nM; Log KD α1B: result in words ([3]; no inhibition of [3H]prazosin binding at maximum concentration possible): No binding to 100 µmol/L; binding at α1B ([3]; result in words in the Log KD α1B column): No binding to 100µM; binding at α1B (result in words) ([3]; up to the maximum concentration): No binding to 100µM |
| COC1(C2=NCCN2)COc2ccccc2O1 (stereo not drawn) [RX 821002] |  |  |  |  | 1.4 |  |  |  | Log KD α1D [1, 13]: -5.31 ± 0.13; Log KD α1A [2, 13]: -6.51 ± 0.09; selectivity α1A vs 1D [2, 8]: 16; selectivity α1A vs α1B [2, 8]: 11; Log KD α1B [3, 13]: -5.46 ± 0.06 |
| O=C1CCC(=O)N1C[C@H]1CC[C@H]2CN(c3ncccn3)CCN2C1 [Sunepitron] | 4.8 | 2.8 | 13 | 1660 | 4.8 |  | 4680 | 22400 |  |
| CC(C)NCC(O)COc1cccc2[nH]c3ccccc3c12 (stereo not drawn) [Carazolol] | 2.3 | 34 | 78 | 269 | 2.3 |  |  | 20900 | Kd ([1]; Log KD α1D (apparent), app: top concentration inhibited most but not all specific binding, curve extrapolated): 9120 nM |
| O=C1NCCN1CCN1CCC(c2cn(-c3ccc(F)cc3)c3ccc(Cl)cc23)CC1 [Sertindole] |  | 219 | 9.8 | 0.537 |  |  | 117 | 5.25 | Selectivity ratio α1B vs α1D [3, 14]: 22 fold |
| CNCCC=C1c2ccccc2CCc2ccccc21 [Nortriptyline] |  |  |  |  |  |  | 1550 | 851 | Selectivity ratio α1A vs α1B [2]: 47 fold; Selectivity ratio α1A vs α1D [2]: 85 fold; Kd ([2]; Log KD α1A, single-component inhibition curve, given as log KD (negative), mean ± SE mean): 18.2 nM; Selectivity ratio α1B vs α1D [3]: 1.8 fold |
| CCC1(C2=NCCN2)Cc2ccccc2O1 (stereo not drawn) [Efaroxan] | 5.0 | 3.2 | 16 | 3390 | 5.0 |  | 10700 | 53700 |  |
| O=C1c2ccccc2CCC1CNCCc1ccc(O)cc1 (stereo not drawn) [HEAT] |  | 2.9 | 3.4 |  |  | −8.57 ± 0.06 |  |  | Log KD α1D site 1 ([1]; high-affinity component of two-component curve, control, used for selectivity): −8.11 ± 0.18; Log KD α1D site 2 ([1]; control): −5.15 ± 0.26; % site 1 α1D [1, 11]: 64.1 ± 4.1% site 1; % site 1 α1D [1, 12]: -8.11 ± 0.18 -5.15 ± 0.26 64.1 ± 4.1% site 1; Selectivity ratio α1B vs α1D [3, 14]: 1.2 fold; Log KD α1B [3, 9]: −8.04 ± 0.04 |
